# Reference: patent US9828357B2, “Cyclic compounds” (Takeda Pharmaceutical Company Limited, priority 2015, dated 2017)
# Key:
# TLR4 = target: T1, TLR4 (Mus musculus, UniProt Q9QUK6); test: Inhibitory effect with respect to NO production (LPS/interferon γ-stimulated RAW264.7); format: cell-based, murine; conditions: RAW264.7 cells, LPS 1.25 ng/mL and mouse interferon γ 0.2 ng/mL, nitrite ion in culture supernatant
# T1 construct: endogenous in cells; host or cells: RAW264.7 (murine macrophage cell line)
# T1 sequence (Q9QUK6 26-835): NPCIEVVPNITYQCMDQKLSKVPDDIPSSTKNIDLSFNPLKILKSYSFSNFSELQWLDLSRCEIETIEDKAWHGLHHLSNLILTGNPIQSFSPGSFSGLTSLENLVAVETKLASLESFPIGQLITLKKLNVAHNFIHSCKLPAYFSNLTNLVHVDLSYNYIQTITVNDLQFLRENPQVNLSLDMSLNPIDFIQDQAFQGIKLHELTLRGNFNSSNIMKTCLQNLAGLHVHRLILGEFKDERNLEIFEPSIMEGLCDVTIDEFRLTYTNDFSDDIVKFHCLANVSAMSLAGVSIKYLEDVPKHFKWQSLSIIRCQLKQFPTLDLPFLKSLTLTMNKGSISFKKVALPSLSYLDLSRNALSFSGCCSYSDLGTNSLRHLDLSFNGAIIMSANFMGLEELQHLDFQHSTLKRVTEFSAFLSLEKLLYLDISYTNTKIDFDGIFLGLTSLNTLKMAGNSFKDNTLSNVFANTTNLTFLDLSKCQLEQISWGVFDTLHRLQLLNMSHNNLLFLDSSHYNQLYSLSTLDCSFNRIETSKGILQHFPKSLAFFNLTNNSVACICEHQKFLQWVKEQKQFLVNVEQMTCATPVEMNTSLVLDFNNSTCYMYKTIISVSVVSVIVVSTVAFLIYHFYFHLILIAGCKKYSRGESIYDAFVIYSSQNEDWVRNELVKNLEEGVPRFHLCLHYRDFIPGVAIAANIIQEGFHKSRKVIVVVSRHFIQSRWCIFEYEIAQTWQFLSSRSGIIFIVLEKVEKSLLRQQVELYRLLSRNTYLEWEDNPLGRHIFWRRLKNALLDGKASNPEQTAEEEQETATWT
# T1 sequence (Q9JHF9 19-160 partner): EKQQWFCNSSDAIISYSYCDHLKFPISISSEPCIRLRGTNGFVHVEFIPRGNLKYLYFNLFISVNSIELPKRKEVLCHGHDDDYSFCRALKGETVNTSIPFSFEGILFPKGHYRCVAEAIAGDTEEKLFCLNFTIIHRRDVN
# Protocol: The inhibitory effect on TLR4 was determined using the inhibition rate due to the test compound with respect to NO production as a result of addition of lipopolysaccharide (LPS) using murine macrophage cell line RAW264.7. The cells were adjusted to 2×10^6 cells/mL using RPM1-1640 culture medium (phenol red free) supplemented with 10% inactivated bovine fetal serum, and were plated on 384 well plate so as to contain 6×10^4 cells/30 μL per well. Thereafter the cells were cultured at 37° C. overnight under 5% CO2/95% air. The test compound dissolved in DMSO was diluted 200 times using RPM1-1640 culture medium and adjusted so as to form a compound concentration of 500 nM. The prepared test compound 10 μL (final concentration 100 nM) was added to the cells, and LPS (Sigma) and mouse interferon γ (Wako Pure Chemicals) were added in amounts of 10 μL so as to form final concentrations of 1.25 ng/mL and 0.2 ng/mL respectively. The cells were further cultured overnight, and then the nitrite ion (stable NO metabolite) concentration in the culture supernatant was measured as an index of NO production. The nitrite ion concentration was assayed by adding 10 μL of 20 μg/mL 2,3-diamino naphthalene (DAN) dissolved in 0.2N HCl to 20 μL culture supernatant, incubating at room temperature for ten minutes, and then adding 10 μL of 0.5N NaOH, and measuring the fluorescent value at 460 nm (excitation wavelength 355 nm) using an EnVision plate reader (Perkin Elmer). The NO production inhibition rate (%) was calculated using the value without the addition of stimulating agent as control of 100% inhibition, and the value without the addition of the compound as control of 0% inhibition.
# [1] = system: oxaliplatin induced-neuropathic pain model mouse; test: Analgesic action on oxaliplatin induced-neuropathic pain model mouse; format: in vivo; conditions: C57BL/6N mice, 1 week after oxaliplatin 0.3 mg/kg i.p., mean ± standard error
# Protocol: Oxaliplatin was diluted with saline by the predetermined concentration, and administered intraperitoneally to mice (C57BL/6N, male, 8 weeks old) at 0.3 mg/kg. The test compound was dissolved in 10% captisol or 10% captisol containing 0.1% N-methyl-2-pyrrolidone. The compound was administered intravenously (0.1-10 mg/kg body weight) to the mice immediately before intraperitoneal administration of various anticancer drugs. The pain threshold was measured 1 week after oxaliplatin administration. The pain threshold was evaluated as a weighted value (gram) showing pseudo-escape reaction, when the footpad of the right hind limb was pressed using balance type pressurizing device (Ugo Basile). The values in the table show the mean±standard errors of the weighted values.
NO production inhibitory effect at 100 nM (% inhibition) (TLR4),SMILES,Pain threshold (weighted value showing pseudo-escape reaction) ([1]; 0.1 mg/kg i.v.) [gram],Pain threshold (weighted value showing pseudo-escape reaction) ([1]; 0.3 mg/kg i.v.) [gram],Pain threshold (weighted value showing pseudo-escape reaction) ([1]; 1 mg/kg i.v.) [gram]
100,"CCOC(=O)C1=CC2(CCC1S(=O)(=O)C1CCc3cccc(C)c31)O[C@@H](CO)[C@H](CO)O2 (stereo partly drawn) [Compound 13, Ethyl (2S, 3S)-2,3-bis(hydroxymethyl)-8-((7-methyl-2,3-dihydro-1H-inden-1-yl)sulfonyl)-1,4-dioxaspiro[4.5]dec-6-ene-7-carboxylate]",,,
104,"CCOC(=O)C1=CCCC[C@H]1S(=O)(=O)[C@H]1CCc2cccc(Cl)c21 [Compound 18, Ethyl (6R)-6-(((1S)-7-chloro-2,3-dihydro-1H-inden-1-yl)sulfonyl)cyclohex-1-ene-1-carboxylate]",,,
107,"CCOC(=O)C1=CC2(CC[C@H]1S(=O)(=O)[C@H]1CCCc3cccc(Cl)c31)O[C@@H](CO)[C@H](CO)O2 [Compound 19, Ethyl (2S,3S,8R)-8-(((1S)-8-chloro-1,2,3,4-tetrahydronaphthalen-1-yl)sulfonyl)-2,3-bis(hydroxymethyl)-1,4-dioxaspiro[4.5]dec-6-ene-7-carboxylate]",,,
112,"CCOC(=O)C1=CC2(CC[C@H]1S(=O)(=O)[C@H]1CCc3cccc(Cl)c31)O[C@H](COC)[C@@H](COC)O2 [Compound 21, Ethyl (2R,3R,8R)-8-(((1S)-7-chloro-2,3-dihydro-1H-inden-1-yl)sulfonyl)-2,3-bis(methoxymethyl)-1,4-dioxaspiro[4.5]dec-6-ene-7-carboxylate]",160.0 ± 29.7,265.0 ± 58.5,285.0 ± 19.3

# Further lines, the compound ahead of its results:
SMILES,NO production inhibitory effect at 100 nM (% inhibition) (TLR4),Pain threshold (weighted value showing pseudo-escape reaction) ([1]; 0.1 mg/kg i.v.) [gram],Pain threshold (weighted value showing pseudo-escape reaction) ([1]; 0.3 mg/kg i.v.) [gram],Pain threshold (weighted value showing pseudo-escape reaction) ([1]; 1 mg/kg i.v.) [gram]
"CCOC(=O)C1=CC2(CCC1S(=O)(=O)C1CCc3cc(F)cc(Br)c31)O[C@@H](CO)[C@H](CO)O2 (stereo partly drawn) [Compound 11, Ethyl (2S, 3S)-8-((7-bromo-5-fluoro-2,3-dihydro-1H-inden-1-yl)sulfonyl)-2,3-bis(hydroxymethyl)-1,4-dioxaspiro[4.5]dec-6-ene-7-carboxylate]",110,,,
"CCOC(=O)C1=CC2(CCC1S(=O)(=O)C1CCc3cccc(Br)c31)O[C@@H](CO)[C@H](CO)O2 (stereo partly drawn) [Compound 12, Ethyl (2S, 3S)-8-((7-bromo-2,3-dihydro-1H-inden-1-yl)sulfonyl)-2,3-bis(hydroxymethyl)-1,4-dioxaspiro[4.5]dec-6-ene-7-carboxylate]",100,,,
"CCOC(=O)C1=CC2(CC[C@H]1S(=O)(=O)[C@H]1CCc3cc(F)cc(Cl)c31)O[C@H](CO)[C@@H](CO)O2 [Compound 14, Ethyl (2R,3R,8R)-8-(((1S)-7-chloro-5-fluoro-2,3-dihydro-1H-inden-1-yl)sulfonyl)-2,3-bis(hydroxymethyl)-1,4-dioxaspiro[4.5]dec-6-ene-7-carboxylate]",107,208.0 ± 33.8,215.0 ± 21.6,310.0 ± 33.8
"CCOC(=O)C1=CC2(CC[C@H]1S(=O)(=O)[C@H]1CCc3cc(F)cc(Cl)c31)O[C@@H](CO)[C@H](CO)O2 [Compound 15, Ethyl (2S,3S,8R)-8-(((1S)-7-chloro-5-fluoro-2,3-dihydro-1H-inden-1-yl)sulfonyl)-2,3-bis(hydroxymethyl)-1,4-dioxaspiro[4.5]dec-6-ene-7-carboxylate]",106,,,
